# ChEMBL document CHEMBL1152385, “Cyanoguanidine-based lactam derivatives as a novel class of orally bioavailable factor Xa inhibitors” (Bioorg Med Chem Lett, 2009)
# pEC50, pIC50, pKi: −log10 of the molar value.
# Key:
# [1] = biological target: Coagulation factor X (Homo sapiens, UniProt P00742); assay: Inhibition of human factor 10a-mediated cleavage of synthetic substrate S-2222
# [2] = tested on: Plasma
# [3] = biological target: Amine oxidase [flavin-containing] A (Rattus norvegicus, UniProt P21396); assay: Inhibition of rat MAO-A at 10 uM
# Amine oxidase [flavin-containing] A, sequence (P21396 whole entry): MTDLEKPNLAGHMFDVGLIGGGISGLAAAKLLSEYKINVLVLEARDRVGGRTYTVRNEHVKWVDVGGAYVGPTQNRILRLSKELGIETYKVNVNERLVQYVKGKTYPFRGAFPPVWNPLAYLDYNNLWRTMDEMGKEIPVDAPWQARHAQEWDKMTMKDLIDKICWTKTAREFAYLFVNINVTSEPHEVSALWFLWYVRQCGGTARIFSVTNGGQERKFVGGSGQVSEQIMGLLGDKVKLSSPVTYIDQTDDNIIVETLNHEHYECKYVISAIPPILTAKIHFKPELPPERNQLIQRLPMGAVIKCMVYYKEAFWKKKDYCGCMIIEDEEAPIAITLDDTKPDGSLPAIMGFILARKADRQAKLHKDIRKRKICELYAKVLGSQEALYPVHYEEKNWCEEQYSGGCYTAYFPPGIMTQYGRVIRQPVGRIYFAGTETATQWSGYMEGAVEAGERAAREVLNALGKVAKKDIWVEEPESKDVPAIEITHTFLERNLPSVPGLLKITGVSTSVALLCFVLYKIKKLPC
# [4] = biological target: Amine oxidase [flavin-containing] B (Rattus norvegicus, UniProt P19643); assay: Inhibition of rat MAO-B at 10 uM
# Amine oxidase [flavin-containing] B, sequence (P19643 whole entry): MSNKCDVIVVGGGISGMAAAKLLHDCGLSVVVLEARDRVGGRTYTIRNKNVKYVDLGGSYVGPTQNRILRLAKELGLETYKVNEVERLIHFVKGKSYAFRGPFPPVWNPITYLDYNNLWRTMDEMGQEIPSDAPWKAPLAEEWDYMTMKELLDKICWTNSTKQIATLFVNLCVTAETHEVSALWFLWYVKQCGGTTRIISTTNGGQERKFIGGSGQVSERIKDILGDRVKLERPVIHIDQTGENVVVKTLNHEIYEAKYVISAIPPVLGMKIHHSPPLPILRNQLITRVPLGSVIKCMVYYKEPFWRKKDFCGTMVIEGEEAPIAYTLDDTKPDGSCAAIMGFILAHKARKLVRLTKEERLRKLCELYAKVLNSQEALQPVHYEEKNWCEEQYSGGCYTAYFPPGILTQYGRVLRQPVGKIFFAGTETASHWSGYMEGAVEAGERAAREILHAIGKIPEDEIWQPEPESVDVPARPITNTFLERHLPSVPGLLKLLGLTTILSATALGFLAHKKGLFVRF
# [5] = biological target: T1, Voltage-gated L-type calcium channel (Rattus norvegicus, UniProt P22002+Q02485+P27732); assay: Inhibition of rat DHP binding site of L-type calcium channel at 10 uM
# [6] = biological target: T1, Voltage-gated L-type calcium channel; assay: Inhibition of rat verapamil binding site of L-type calcium channel at 10 uM
# [7] = biological target: Nuclear receptor subfamily 1 group I member 2 (Homo sapiens, UniProt O75469); assay: Activity at PXR
# [8] = biological target: T2, Cytochrome P450 2C19 (Homo sapiens, UniProt P33261); assay: Inhibition of CYP2C19 in human TC5 cells; format: ADME, cell-based
# T2 sequence (P33261 whole entry): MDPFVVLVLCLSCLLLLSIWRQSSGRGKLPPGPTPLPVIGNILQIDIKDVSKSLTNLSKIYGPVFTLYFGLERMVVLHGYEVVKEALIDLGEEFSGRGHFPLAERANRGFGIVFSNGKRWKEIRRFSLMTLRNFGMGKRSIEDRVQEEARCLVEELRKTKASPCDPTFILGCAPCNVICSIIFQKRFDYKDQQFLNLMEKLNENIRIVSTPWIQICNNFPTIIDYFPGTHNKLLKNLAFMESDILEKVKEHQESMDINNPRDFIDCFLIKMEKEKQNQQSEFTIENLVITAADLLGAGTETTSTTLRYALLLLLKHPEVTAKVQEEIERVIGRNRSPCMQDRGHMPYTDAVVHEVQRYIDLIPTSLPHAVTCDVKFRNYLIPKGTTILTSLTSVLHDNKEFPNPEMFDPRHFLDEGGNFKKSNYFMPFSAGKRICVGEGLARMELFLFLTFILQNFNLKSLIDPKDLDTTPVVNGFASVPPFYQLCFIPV
# [9] = biological target: T3, Cytochrome P450 2D6 (Homo sapiens, UniProt P10635); assay: Inhibition of CYP2D6 in human TC5 cells; format: ADME, cell-based
# T3 sequence (P10635 whole entry): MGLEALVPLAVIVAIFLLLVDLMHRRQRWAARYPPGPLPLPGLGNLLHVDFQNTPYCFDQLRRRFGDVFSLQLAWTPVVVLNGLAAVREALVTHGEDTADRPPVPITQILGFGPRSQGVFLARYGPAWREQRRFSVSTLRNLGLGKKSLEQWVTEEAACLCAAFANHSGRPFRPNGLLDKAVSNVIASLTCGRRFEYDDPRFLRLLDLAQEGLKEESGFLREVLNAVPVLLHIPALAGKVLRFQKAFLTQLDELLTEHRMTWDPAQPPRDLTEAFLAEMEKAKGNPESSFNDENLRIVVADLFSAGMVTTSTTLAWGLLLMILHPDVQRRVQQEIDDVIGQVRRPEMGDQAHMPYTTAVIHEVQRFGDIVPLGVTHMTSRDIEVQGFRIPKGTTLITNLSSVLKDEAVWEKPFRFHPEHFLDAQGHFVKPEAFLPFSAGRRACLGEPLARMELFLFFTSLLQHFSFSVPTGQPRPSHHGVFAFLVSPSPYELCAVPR
# [10] = biological target: Cytochrome P450 2C8 (Homo sapiens, UniProt P10632); assay: Inhibition of CYP2C8; format: ADME
# [11] = biological target: T2, Cytochrome P450 2C19; assay: Inhibition of CYP2C19; format: ADME
# [12] = biological target: T3, Cytochrome P450 2D6; assay: Inhibition of CYP2D6; format: ADME
# [13] = biological target: Cytochrome P450 2B6 (Homo sapiens, UniProt P20813); assay: Inhibition of CYP2B6; format: ADME
# Cytochrome P450 2B6, sequence (P20813 whole entry): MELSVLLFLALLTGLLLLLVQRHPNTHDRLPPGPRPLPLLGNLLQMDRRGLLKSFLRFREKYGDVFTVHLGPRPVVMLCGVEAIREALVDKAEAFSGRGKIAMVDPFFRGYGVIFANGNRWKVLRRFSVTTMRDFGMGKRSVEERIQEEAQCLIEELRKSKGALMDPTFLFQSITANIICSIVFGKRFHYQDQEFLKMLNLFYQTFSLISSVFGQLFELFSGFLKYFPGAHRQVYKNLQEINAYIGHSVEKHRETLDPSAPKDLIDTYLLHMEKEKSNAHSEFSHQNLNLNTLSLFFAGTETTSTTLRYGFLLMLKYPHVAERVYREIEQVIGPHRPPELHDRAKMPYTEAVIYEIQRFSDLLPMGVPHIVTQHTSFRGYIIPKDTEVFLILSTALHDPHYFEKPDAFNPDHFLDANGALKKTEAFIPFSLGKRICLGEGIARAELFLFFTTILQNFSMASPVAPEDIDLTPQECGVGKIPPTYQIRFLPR
# [14] = biological target: T4, Cytochrome P450 2C9 (Homo sapiens, UniProt P11712); assay: Inhibition of CYP2C9; format: ADME
# T4 sequence (P11712 whole entry): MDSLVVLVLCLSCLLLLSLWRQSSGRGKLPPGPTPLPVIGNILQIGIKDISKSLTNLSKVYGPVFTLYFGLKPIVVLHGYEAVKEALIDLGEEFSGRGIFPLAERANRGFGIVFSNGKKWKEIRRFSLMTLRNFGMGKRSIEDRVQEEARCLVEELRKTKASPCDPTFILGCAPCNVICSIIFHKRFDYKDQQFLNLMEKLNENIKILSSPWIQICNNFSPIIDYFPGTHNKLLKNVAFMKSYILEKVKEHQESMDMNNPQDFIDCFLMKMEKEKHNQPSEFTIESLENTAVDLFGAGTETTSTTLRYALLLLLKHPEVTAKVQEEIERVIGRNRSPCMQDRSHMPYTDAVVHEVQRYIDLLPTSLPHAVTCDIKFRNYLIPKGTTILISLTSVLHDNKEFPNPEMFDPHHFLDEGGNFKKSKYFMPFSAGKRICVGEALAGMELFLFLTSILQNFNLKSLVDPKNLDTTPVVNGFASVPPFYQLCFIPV
# [15] = biological target: T5, Cytochrome P450 3A4 (Homo sapiens, UniProt P08684); assay: Inhibition of CYP3A4 using BZR as substrate; format: ADME
# T5 sequence (P08684 whole entry): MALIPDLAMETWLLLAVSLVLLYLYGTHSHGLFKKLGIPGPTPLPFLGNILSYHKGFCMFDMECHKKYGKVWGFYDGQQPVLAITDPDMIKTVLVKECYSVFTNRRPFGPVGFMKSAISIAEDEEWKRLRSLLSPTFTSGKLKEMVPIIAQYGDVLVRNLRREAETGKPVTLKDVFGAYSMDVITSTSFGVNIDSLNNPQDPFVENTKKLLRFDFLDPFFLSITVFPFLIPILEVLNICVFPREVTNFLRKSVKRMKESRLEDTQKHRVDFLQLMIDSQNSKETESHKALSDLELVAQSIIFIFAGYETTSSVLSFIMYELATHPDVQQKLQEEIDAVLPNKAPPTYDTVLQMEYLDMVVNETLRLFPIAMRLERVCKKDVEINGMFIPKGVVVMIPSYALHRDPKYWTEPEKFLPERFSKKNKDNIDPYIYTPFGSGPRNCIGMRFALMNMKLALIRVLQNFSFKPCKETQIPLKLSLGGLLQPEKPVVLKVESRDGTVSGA
# [16] = biological target: T4, Cytochrome P450 2C9; assay: Inhibition of CYP2C9 in human TC5 cells; format: ADME, cell-based
# [17] = biological target: Cytochrome P450 1A2 (Homo sapiens, UniProt P05177); assay: Inhibition of CYP1A2; format: ADME
# Cytochrome P450 1A2, sequence (P05177 whole entry): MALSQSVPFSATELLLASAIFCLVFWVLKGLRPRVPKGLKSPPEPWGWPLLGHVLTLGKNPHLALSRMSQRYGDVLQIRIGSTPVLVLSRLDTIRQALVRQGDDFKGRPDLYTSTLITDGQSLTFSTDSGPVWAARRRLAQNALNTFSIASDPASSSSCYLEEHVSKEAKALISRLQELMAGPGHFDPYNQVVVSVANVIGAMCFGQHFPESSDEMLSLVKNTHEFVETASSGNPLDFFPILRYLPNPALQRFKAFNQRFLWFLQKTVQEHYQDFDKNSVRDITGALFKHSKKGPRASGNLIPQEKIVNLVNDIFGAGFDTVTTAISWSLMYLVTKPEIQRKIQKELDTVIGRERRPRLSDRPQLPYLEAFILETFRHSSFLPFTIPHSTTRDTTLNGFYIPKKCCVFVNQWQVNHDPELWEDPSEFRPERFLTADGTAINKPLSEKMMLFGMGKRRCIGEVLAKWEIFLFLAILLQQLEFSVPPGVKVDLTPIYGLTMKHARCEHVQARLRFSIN
# [18] = biological target: T5, Cytochrome P450 3A4; assay: Inhibition of CYP3A4 using BFC as substrate; format: ADME
# [19] = biological target: Prothrombin (Homo sapiens, UniProt P00734); assay: Inhibition of thrombin
# [20] = biological target: Vitamin K-dependent protein C (Homo sapiens, UniProt P04070); assay: Inhibition of activated protein C
# Vitamin K-dependent protein C, sequence (P04070 43-197 limits assumed): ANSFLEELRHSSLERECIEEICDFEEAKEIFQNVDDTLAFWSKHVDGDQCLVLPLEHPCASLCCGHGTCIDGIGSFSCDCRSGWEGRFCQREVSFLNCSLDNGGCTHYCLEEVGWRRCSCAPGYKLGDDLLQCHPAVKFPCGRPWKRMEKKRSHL
# Vitamin K-dependent protein C, sequence (P04070 212-461 limits assumed): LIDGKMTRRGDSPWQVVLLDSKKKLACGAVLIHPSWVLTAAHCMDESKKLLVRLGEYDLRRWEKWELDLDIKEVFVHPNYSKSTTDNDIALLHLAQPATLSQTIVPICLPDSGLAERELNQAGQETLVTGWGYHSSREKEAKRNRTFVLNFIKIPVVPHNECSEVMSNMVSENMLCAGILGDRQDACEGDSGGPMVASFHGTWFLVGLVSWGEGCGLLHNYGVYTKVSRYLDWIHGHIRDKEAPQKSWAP
# [21] = biological target: Urokinase-type plasminogen activator (Homo sapiens, UniProt P00749); assay: Inhibition of u-PA
# [22] = biological target: Plasminogen (Homo sapiens, UniProt P00747); assay: Inhibition of plasmin
# [23] = biological target: Tissue-type plasminogen activator (Homo sapiens, UniProt P00750); assay: Inhibition of t-PA
# [24] = biological target: T5, Cytochrome P450 3A4; assay: Inhibition of CYP3A4 in human TC5 cells; format: ADME, cell-based
# [25] = tested on: Rattus norvegicus; assay: Total clearance in rat at 7 mg/kg, iv; format: ADME, organism-based; set-up: dose 7 mg/kg, route intravenous; details: in vivo
# [26] = Volume of distribution at steady state in rat at 7 mg/kg, iv; format: ADME, organism-based; set-up: dose 7 mg/kg, route intravenous; details: in vivo, read-out: Vdss
# [27] = Half life in rat at 7 mg/kg, iv; format: ADME, organism-based; set-up: dose 7 mg/kg, route intravenous; details: in vivo
# [28] = Mean residence time in rat at 7 mg/kg, iv; format: ADME, organism-based; set-up: dose 7 mg/kg, route intravenous; details: in vivo
# [29] = Oral Bioavailability in rat at 10 mg/kg; format: ADME, organism-based; details: in vivo
# [30] = tested on: Canis familiaris; assay: Total clearance in dog at 8.3 mg/kg, iv; format: ADME, organism-based, Canis lupus familiaris; set-up: dose 8.3 mg/kg, route intravenous; details: in vivo
# [31] = Volume of distribution at steady state in dog at 8.3 mg/kg, iv; format: ADME, organism-based, Canis lupus familiaris; set-up: dose 8.3 mg/kg, route intravenous; details: in vivo, read-out: Vdss
# [32] = Half life in dog at 8.3 mg/kg, iv; format: ADME, organism-based, Canis lupus familiaris; set-up: dose 8.3 mg/kg, route intravenous; details: in vivo
# [33] = Mean residence time in dog at 8.3 mg/kg, iv; format: ADME, organism-based, Canis lupus familiaris; set-up: dose 8.3 mg/kg, route intravenous; details: in vivo
# [34] = Oral bioavailability in dog at 7 mg/kg; format: ADME, organism-based, Canis lupus familiaris; details: in vivo
# [35] = tested on: Rhesus monkey; assay: Total clearance in monkey at 10 mg/kg, iv; format: ADME, organism-based, Macaca mulatta; set-up: dose 10 mg/kg, route intravenous; details: in vivo
# [36] = Volume of distribution at steady state in monkey at 10 mg/kg, iv; format: ADME, organism-based, Macaca mulatta; set-up: dose 10 mg/kg, route intravenous; details: rhesus monkey, in vivo, read-out: Vdss
# [37] = Half life in monkey at 10 mg/kg, iv; format: ADME, organism-based, Macaca mulatta; set-up: dose 10 mg/kg, route intravenous; details: rhesus monkey, in vivo
# [38] = Mean residence time in monkey at 10 mg/kg, iv; format: ADME, organism-based, Macaca mulatta; set-up: dose 10 mg/kg, route intravenous; details: rhesus monkey, in vivo
# [39] = Bioavailability in monkey at 10 mg/kg, po; format: ADME, organism-based, Macaca mulatta; details: rhesus monkey, in vivo
# Coagulation factor X, sequence (P00742 41-179 limits assumed): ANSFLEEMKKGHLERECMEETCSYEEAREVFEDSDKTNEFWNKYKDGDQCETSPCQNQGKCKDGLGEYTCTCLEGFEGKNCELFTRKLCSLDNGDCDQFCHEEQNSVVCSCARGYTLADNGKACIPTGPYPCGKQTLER
# Coagulation factor X, sequence (P00742 235-488 limits assumed): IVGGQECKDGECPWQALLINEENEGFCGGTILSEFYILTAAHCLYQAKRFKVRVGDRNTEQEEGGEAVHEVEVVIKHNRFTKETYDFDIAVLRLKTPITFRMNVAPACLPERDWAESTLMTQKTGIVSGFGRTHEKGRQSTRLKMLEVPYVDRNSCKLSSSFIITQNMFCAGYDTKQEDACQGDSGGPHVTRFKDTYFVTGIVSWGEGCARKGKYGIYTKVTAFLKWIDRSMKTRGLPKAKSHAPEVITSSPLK
structure (smiles),measurement,setting,value
Cc1cc2cc(N/C(=N\C#N)N[C@H]3CCCCN(CC(=O)N4CCCC4)C3=O)cc(F)c2o1,pIC50,[1],7.96
Cc1cc2cc(N/C(=N\C#N)N[C@H]3CCCCN(CC(=O)N4CCCC4)C3=O)cc(Cl)c2o1,pIC50,[1],7.57
Cc1oc2ccc(N=C(NC#N)N[C@H]3CCCCN(CC(=O)N4CCCC4)C3=O)cc2c1C,pIC50,[1],6.46
Cc1cc2cc(N=C(NC#N)N[C@@H]3CCN(CC(=O)N4CCCC4)C3=O)ccc2o1,pIC50,[1],4.52
Cc1cc2cc(N/C(=N\C#N)N[C@H]3CCCN(CC(=O)N4CCCC4)C3=O)ccc2o1,pIC50,[1],6.03
Cc1cc2cc(N/C(=N\C#N)N[C@H]3CCCCN(CC(=O)N4CCC[C@@H]4CN)C3=O)ccc2o1,pIC50,[1],7.66
same,EC,[2],27 µM
Cc1nc2ccc(N=C(NC#N)N[C@H]3CCCCN(CC(=O)N4CCCC4)C3=O)cc2[nH]1,pIC50,[1],4.93
Cc1cc2cc(N/C(=N\C#N)N[C@H]3CCCCN(CC(=O)N4CCCC4)C3=O)cc(C(F)(F)F)c2o1,pIC50,[1],6.78
Cc1cc2cc(N/C(=N\C#N)N[C@H]3CCCCN(CC(=O)N4CCC[C@H]4CN)C3=O)ccc2o1,pIC50,[1],6.41
N#C/N=C(\Nc1ccc2occc2c1)N[C@H]1CCCCN(CC(=O)N2CCCC2)C1=O,pIC50,[1],7.08
CCc1cc2cc(N=C(NC#N)N[C@H]3CCCCN(CC(=O)N4CCCC4)C3=O)ccc2o1,pIC50,[1],4.81
Cc1cc2cc(N=C(NC#N)N[C@H]3CCCCN(CC(=O)N4CCCC4)C3=O)ccc2[nH]1,pIC50,[1],< 4.47
Cc1cn2cc(N/C(=N\C#N)N[C@H]3CCCCN(CC(=O)N4CCCC4)C3=O)ccc2n1,pIC50,[1],< 4.47
N#C/N=C(\Nc1ccc2ccccc2c1)N[C@H]1CCCCN(CC(=O)N2CCCC2)C1=O,pIC50,[1],6.11
Cc1cc2cc(N/C(=N\C#N)N[C@H]3CCCCN(CC(=O)N4CCCC4Cc4ccccc4)C3=O)ccc2o1 (stereo partly drawn),pIC50,[1],7.72
same,EC,[2],>50 µM
CC(=O)NC[C@@H]1CCCN1C(=O)CN1CCCC[C@H](N/C(=N\C#N)Nc2ccc3oc(C)cc3c2)C1=O,pIC50,[1],7.27
same,EC,[2],>50 µM
Cc1cc2cc(N/C(=N\C#N)N[C@H]3CCN(CC(=O)N4CCCC4)C3=O)ccc2o1,pIC50,[1],< 4.49
Cc1cc2cc(N=C(NC#N)N[C@H]3CCCCN(CC(=O)N4CCCC4)C3=O)ccc2s1,pIC50,[1],5.54
Cc1cc2cc(N=C(NC#N)N[C@H]3CCCCN(CC(=O)N4CCCC4)C3=O)ccc2o1,inhibition (INH),[3],Not Active
same,inhibition (INH),[4],Not Active
same,inhibition (INH),[5],Not Active
same,inhibition (INH),[6],Not Active
same,pEC50,[7],< 4.60
same,pIC50,[8],< 3.70
same,pIC50,[9],< 3.70
same,pIC50,[10],< 4.40
same,pIC50,[11],< 4.40
same,pIC50,[12],< 4.40
same,pIC50,[13],< 4.40
same,pIC50,[14],4.53
same,pIC50,[15],< 4.40
same,pIC50,[16],< 3.70
same,pIC50,[17],< 4.40
same,pIC50,[18],4.73
same,pKi,[19],5.18
same,pKi,[20],< 4.74
same,pKi,[21],< 5.11
same,pKi,[22],< 4.80
same,pKi,[23],5.43
same,pIC50,[24],< 3.70
same,clearance,[25],1.7 mL/min/kg
same,Vd,[26],0.19 L/kg
same,half-life,[27],2.4 h
same,MRT,[28],1.9 h
same,bioavailability,[29],50%
same,clearance,[30],0.12 mL/min/kg
same,Vd,[31],0.11 L/kg
same,half-life,[32],10.3 h
same,MRT,[33],16 h
same,bioavailability,[34],77%
same,clearance,[35],2.2 mL/min/kg
same,Vd,[36],1.8 L/kg
same,half-life,[37],2.9 h
same,MRT,[38],1.5 h
same,bioavailability,[39],49%
Cc1cc2cc(N/C(=N\C#N)N[C@H]3CCCCN(CC(=O)N4C5CCC4CNC5)C3=O)ccc2o1,pIC50,[1],8.30
same,EC,[2],11.5 µM
Cc1cc2ccc(N/C(=N\C#N)N[C@H]3CCCCN(CC(=O)N4CCCC4)C3=O)cc2o1,pIC50,[1],< 4.47
Cc1nc2cc(N/C(=N\C#N)N[C@H]3CCCCN(CC(=O)N4CCCC4)C3=O)ccc2o1,pIC50,[1],5.57
Cn1cc2cc(N/C(=N\C#N)N[C@H]3CCCCN(CC(=O)N4CCCC4)C3=O)ccc2n1,pIC50,[1],5.62
COc1cc(N=C(NC#N)N[C@H]2CCCCN(CC(=O)N3CCCC3)C2=O)cc2cc(C)oc12,pIC50,[1],4.83
Cc1cc2cc(N=C(NC#N)NC3CCCCCN(CC(=O)N4CCCC4)C3=O)ccc2o1 (racemic),pIC50,[1],6.71
Cc1nc2ccc(N/C(=N\C#N)N[C@H]3CCCCN(CC(=O)N4CCCC4)C3=O)cc2o1,pIC50,[1],4.73
Cc1cc2cc(N=C(NC#N)N[C@H]3CCCCN(CC(=O)N4CCCC4)C3=O)cc(C)c2o1,pIC50,[1],7.68
Cc1cc2ccc(N/C(=N\C#N)N[C@H]3CCCCN(CC(=O)N4CCCC4)C3=O)cc2[nH]1,pIC50,[1],5.89
N#C/N=C(\Nc1ccc2oc(C#N)cc2c1)N[C@H]1CCCCN(CC(=O)N2CCCC2)C1=O,pIC50,[1],5.59
CC(=O)NC[C@H]1CCCN1C(=O)CN1CCCC[C@H](N/C(=N\C#N)Nc2ccc3oc(C)cc3c2)C1=O,pIC50,[1],7.55
same,EC,[2],33 µM
Cc1cc2cc(N/C(=N\C#N)N[C@H]3CCCCN(CC(=O)N4CCC(Cc5ccccc5)C4)C3=O)ccc2o1 (stereo partly drawn),pIC50,[1],7.28
same,EC,[2],>50 µM
Cc1cc2cc(N/C(=N\C#N)N[C@H]3CCCCN(CC(=O)N4CC5CC5C4)C3=O)ccc2o1 (stereo partly drawn),pIC50,[1],7.82
same,EC,[2],56 µM
Cc1coc2ccc(N=C(NC#N)N[C@H]3CCCCN(CC(=O)N4CCCC4)C3=O)cc12,pIC50,[1],5.53
Cc1cc2cc(N=C(NC#N)N[C@H]3CCCCN(CC(=O)N4CCCC4)C3=O)c(F)cc2o1,pIC50,[1],7.12
Cc1cc2c(F)c(N/C(=N\C#N)N[C@H]3CCCCN(CC(=O)N4CCCC4)C3=O)ccc2o1,pIC50,[1],5.56
